The target of this test is T1, FLK-1 receptor (Mus musculus, UniProt P35918).
T1 construct: expressed in transfected cells; host or cells: NIH3T3 C7#3 (FLK-1 infected cells)
Description: ELISA Assay to Measure Kinase Activity of FLK-1 Receptor in FLK-1/NIH Cells. It counts as cell-based, murine. Particulars: cellular, VEGF stimulated; read-out: ELISA DATA: FLK-1 - (Cell.). The source says: For purposes of this application, although the nomenclature of the human and murine counterparts of the generic "flk-l" receptor differ, they are, in many respects, interchangeable. The murine receptor, FLK1, and its human counterpart, KDR, share a sequence homology of 93.4% within the intracellular domain. Likewise, murine FLK-1 binds human VEGF with the same affinity as mouse VEGF, and accordingly, is activated by the ligand derived from either species. Millauer et al., 1993, Cell 72:835-846; Quinn et al., 1993, Proc. Natl. Acad. Sci. USA 90:7533-7537. FLK-1 also associates with and subsequently tyrosine phosphorylates human RTK substrates (e.g., PLC-γ or p85) when coexpressed in 293 cells (human embryonal kidney fibroblasts).
Models which rely upon the FLK-1 receptor therefore are directly applicable to understanding the KDR receptor. For example, use of the murine FLK-1 receptor in methods to identify compounds which regulate the signal transduction pathway are directly applicable to the identification of compounds which may be used to regulate the human signal transduction pathway, and more specifically, activity related to the KDR receptor. Chemical compounds identified as inhibitors of KDR/FLK-1 in vitro, will be confirmed in suitable in vivo models.
ELISA Assay to Measure Kinase Activity of FLK-1 Receptor in FLK-1/NIH Cells […]
(In general: An ELISA detects its analyte on a solid surface through an enzyme-linked reagent.)

Structures are written as SMILES.

T1 sequence (P35918 20-1345): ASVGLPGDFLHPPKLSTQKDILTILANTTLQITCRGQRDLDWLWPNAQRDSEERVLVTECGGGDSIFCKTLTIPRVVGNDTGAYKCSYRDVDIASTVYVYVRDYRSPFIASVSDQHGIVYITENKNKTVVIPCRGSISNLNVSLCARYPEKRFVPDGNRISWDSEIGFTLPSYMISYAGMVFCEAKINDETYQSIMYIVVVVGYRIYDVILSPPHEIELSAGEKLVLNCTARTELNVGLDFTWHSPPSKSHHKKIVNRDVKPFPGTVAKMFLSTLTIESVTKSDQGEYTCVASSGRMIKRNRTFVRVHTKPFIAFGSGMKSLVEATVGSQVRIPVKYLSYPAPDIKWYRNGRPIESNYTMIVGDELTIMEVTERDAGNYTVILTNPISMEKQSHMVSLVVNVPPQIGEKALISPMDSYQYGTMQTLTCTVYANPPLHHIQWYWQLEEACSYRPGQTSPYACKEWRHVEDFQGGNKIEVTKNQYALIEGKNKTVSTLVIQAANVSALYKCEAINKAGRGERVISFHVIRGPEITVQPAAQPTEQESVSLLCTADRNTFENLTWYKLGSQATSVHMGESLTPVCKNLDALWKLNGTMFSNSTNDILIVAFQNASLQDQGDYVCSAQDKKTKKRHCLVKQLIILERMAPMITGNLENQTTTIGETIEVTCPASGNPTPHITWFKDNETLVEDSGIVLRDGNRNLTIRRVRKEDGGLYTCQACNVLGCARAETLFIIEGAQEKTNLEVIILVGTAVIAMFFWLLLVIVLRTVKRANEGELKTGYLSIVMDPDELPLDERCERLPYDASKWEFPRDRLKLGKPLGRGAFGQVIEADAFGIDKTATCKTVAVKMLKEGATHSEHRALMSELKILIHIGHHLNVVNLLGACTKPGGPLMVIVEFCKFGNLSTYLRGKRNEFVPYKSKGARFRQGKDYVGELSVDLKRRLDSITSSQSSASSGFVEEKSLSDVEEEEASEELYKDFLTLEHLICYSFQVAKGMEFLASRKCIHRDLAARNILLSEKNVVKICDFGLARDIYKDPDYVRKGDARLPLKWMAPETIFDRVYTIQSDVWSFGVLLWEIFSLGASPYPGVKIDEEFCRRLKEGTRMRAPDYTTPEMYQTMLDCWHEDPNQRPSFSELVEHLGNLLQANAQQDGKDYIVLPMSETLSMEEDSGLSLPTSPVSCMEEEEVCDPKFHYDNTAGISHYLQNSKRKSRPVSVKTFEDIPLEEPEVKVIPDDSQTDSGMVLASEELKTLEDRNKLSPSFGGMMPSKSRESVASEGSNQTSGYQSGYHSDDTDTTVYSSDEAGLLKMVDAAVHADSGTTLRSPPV

With `CC(C)S(=O)(=O)c1csc(NC(=O)Nc2cc(C(F)(F)F)cc(C(F)(F)F)c2)c1Cl` [Example Z2, N-[3-Chloro-4-(isopropylsulfonyl)thien-2-yl]-N'-(3,5-di-trifluoromethylphenyl)urea], the IC50 is greater than 100 µM.

For the molecule `CC(C)S(=O)(=O)c1csc(NC(=O)Nc2ccc(C(C)(C)C)cc2)c1Cl` [Example Z1, N-[3-Chloro-4-(isopropylsulfonyl)thien-2-yl]-N'-(4-t-butylphenyl)urea], the IC50 worked out at 1 µM.
